Columns and labels:
integrin α4β7 = molecular target: T1, integrin α4β7 (Homo sapiens, UniProt P13612+P26010); assay: VCAM antagonistic activity (VCAM-1/α4β7 binding assay); format: cell-based; details: RPMI-8866 cells binding to VCAM-1; read-out: VCAM antagonistic activity (IC50) α4β7
T1 construct: lymphoma cell strain RPMI-8866 of human B cells, known to express integrin α4β7; endogenous in cells; host or cells: RPMI-8866 (human B lymphoma cell line)
T1 sequence (P13612 34-1032): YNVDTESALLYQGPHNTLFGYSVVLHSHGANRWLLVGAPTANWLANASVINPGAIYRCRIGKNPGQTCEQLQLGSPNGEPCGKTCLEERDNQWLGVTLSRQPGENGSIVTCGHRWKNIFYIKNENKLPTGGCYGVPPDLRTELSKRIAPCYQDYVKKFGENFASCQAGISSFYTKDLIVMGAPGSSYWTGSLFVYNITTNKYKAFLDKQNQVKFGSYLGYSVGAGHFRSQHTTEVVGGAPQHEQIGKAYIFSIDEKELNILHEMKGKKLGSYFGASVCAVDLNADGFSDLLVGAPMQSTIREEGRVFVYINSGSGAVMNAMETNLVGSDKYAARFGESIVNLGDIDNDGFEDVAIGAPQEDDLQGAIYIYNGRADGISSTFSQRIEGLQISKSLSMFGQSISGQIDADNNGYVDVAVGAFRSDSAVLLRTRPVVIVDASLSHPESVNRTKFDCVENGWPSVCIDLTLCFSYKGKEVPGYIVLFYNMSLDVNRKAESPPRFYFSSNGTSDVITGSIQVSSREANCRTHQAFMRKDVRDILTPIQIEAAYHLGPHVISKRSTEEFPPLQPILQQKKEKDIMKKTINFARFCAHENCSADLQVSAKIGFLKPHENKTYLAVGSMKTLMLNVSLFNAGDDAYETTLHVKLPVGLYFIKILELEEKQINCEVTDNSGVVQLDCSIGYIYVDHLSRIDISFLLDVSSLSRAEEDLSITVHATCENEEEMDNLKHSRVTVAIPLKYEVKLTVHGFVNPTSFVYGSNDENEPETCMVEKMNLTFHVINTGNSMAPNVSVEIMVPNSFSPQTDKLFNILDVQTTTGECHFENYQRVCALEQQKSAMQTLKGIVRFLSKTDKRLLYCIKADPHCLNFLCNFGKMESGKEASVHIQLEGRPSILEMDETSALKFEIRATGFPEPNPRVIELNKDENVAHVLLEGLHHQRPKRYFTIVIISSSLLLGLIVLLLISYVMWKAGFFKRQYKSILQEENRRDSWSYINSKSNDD
T1 sequence (P26010 20-798): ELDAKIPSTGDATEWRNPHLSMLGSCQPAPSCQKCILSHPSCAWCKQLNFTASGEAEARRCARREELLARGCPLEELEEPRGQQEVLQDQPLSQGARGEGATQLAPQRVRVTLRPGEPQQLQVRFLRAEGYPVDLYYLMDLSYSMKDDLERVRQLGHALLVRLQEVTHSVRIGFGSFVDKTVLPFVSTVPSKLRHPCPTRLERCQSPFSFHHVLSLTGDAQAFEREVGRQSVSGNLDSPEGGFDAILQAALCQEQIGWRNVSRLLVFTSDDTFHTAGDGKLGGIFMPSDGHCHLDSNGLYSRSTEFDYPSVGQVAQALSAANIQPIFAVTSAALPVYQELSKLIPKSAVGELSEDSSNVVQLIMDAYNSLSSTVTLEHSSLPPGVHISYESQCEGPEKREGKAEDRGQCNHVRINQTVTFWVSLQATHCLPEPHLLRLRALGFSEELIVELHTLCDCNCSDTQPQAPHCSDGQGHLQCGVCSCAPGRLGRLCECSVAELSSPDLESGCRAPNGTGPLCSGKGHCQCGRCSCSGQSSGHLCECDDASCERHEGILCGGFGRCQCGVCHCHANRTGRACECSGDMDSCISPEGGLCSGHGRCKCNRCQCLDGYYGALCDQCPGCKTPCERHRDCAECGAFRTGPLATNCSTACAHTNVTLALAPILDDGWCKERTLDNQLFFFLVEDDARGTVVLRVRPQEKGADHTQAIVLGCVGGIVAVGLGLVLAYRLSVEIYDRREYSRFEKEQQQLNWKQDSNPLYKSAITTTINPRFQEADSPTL
Outline: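 Calcein-AM-labelled human B-lymphoma RPMI-8866 cells bound to plate-coated recombinant human VCAM-1 in HEPES/DMEM/0.1% BSA with 4 mM MnCl2, with compound, 30 min at room temperature. Unbound cells removed by shaking; bound-cell fluorescence (ex 485/em 535 nm) versus compound-free wells gave IC50, binned.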

integrin α4β1 = molecular target: T2, integrin α4β1 (Homo sapiens, UniProt P05556+P13612); assay: VCAM antagonist activity (VCAM-1/α4β1 binding assay); format: cell-based; details: Jurkat cells binding to VCAM-1; read-out: VCAM antagonistic activity (IC50) α4β1
T2 construct: cell strain Jurkat (ATCC TIB-152) of human T cells, known to express integrin α4β1; host or cells: Jurkat (human T cell line)
Outline: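 Plates coated overnight at 4° C with recombinant human VCAM-1 (500 ng/ml, pH 9.6) and blocked. Calcein-AM-labelled Jurkat cells (α4β1) added with compound in HEPES/DMEM/0.1% BSA, 30 min at room temperature; unbound cells shaken off, bound fluorescence read at 485/535 nm. IC50 from binding relative to compound-free wells.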

T2 sequence (P05556 21-798, one chain of several): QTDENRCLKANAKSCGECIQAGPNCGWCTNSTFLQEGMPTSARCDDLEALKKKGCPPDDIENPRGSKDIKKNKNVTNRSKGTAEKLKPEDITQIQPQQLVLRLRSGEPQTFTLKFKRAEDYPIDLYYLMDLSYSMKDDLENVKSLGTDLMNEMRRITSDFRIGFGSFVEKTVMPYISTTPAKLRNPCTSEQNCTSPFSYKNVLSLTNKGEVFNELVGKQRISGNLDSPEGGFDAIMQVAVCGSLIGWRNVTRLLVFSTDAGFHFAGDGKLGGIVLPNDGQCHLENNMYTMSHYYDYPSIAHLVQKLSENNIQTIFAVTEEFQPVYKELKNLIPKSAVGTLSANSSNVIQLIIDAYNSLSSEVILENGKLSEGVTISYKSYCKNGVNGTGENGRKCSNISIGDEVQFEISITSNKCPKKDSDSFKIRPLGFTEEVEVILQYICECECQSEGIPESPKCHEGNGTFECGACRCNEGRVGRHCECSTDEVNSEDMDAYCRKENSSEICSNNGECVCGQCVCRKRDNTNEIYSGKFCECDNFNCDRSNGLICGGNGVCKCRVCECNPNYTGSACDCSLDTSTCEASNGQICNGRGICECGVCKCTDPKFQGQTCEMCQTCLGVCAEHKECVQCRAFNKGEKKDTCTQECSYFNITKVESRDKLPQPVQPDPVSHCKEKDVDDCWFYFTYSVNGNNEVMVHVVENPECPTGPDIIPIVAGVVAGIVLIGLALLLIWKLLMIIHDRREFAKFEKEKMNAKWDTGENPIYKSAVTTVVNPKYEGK

| Compound | IC50 (integrin α4β7) | IC50 (integrin α4β1) |
| --- | --- | --- |
| CC1(C)CC2CC(C)(CN2C(=O)C2(C(=O)NC(Cc3ccc(OCc4c(Cl)cccc4Cl)cc3)C(=O)O)CCOCC2)C1 (stereo not drawn) [Example 472] | 100 to 2000 nM | 2000 to 10000 nM |
| CCC(CC)(C(=O)N[C@@H](Cc1ccc(NC(=O)c2nc([S+](C)[O-])ncc2Cl)cc1)C(=O)O)C(=O)N1CCCC1 (stereo partly drawn) [Example 478, N-[2-(pyrrolidine-1-ylcarbonyl)-2-ethyl-butanoyl]-4-({[5-chloro-2-(methylsulfinyl)pyrimidine-4-yl]carbonyl}amino)-L-phenyl-alanine] | < 20 nM | 20 to 100 nM |
| CCC(CC)(C(=O)N[C@@H](Cc1ccc(NC(=O)c2nc(S(C)(=O)=O)ncc2Cl)cc1)C(=O)O)C(=O)N1CCCC1 [Example 479, N-[2-(pyrrolidine-1-ylcarbonyl)-2-ethyl-butanoyl)-4-({[5-chloro-2-(methylsulfonyl)pyrimidine-4-yl]carbonyl}-amino)-L-phenyl-alanine] | < 20 nM | 20 to 100 nM |
| CCC(CC)(C(=O)N[C@@H](Cc1ccc(NC(=O)c2nc(NCc3ccc(OC)cc3)ncc2Cl)cc1)C(=O)O)C(=O)N1CCCC1 [Example 480, N-[2-(pyrrolidine-1-ylcarbonyl)-2-ethyl-butanoyl]-4-[({5-chloro-2-[(4-methoxybenzyl)amino]pyrimidine-4-yl}carbonyl)amino]-L-phenylalanine] | < 20 nM | 20 to 100 nM |
| CCCNc1ncc(Cl)c(C(=O)Nc2ccc(C[C@H](NC(=O)C(CC)(CC)C(=O)N3CCCC3)C(=O)O)cc2)n1 [Example 483] | < 20 nM | 20 to 100 nM |
| CCC(CC)(C(=O)N[C@@H](Cc1ccc(NC(=O)c2nc(NC)ncc2Cl)cc1)C(=O)O)C(=O)N1CCCC1 [Example 484] | < 20 nM | 20 to 100 nM |

Next, values leading:

| IC50 (integrin α4β7) | IC50 (integrin α4β1) | Compound |
| --- | --- | --- |
| < 20 nM | 20 to 100 nM | CCC(CC)(C(=O)N[C@@H](Cc1ccc(NC(=O)c2nc(SC)ncc2Br)cc1)C(=O)O)C(=O)N1CCCC1 [Example 477] |
| < 20 nM | 20 to 100 nM | CCC(CC)(C(=O)N[C@@H](Cc1ccc(NC(=O)c2nc(N3CCCC3)ncc2Cl)cc1)C(=O)O)C(=O)N1CCCC1 [Example 481] |
| < 20 nM | 100 to 2000 nM | CCC(CC)(C(=O)N[C@@H](Cc1ccc(NC(=O)c2nc(N3CCCCC3)ncc2Cl)cc1)C(=O)O)C(=O)N1CCCC1 [Example 482] |

From patent US7160874B2, “Phenylalanine derivatives” (Ajinomoto Co., Inc., priority 1999, dated 2007)
